Data on 6 compounds can be found in US7129232B2, “Cephem compounds” (Astellas Pharma Inc., priority 2002, dated 2006).

Values after ≈ are worked out from the molar mass of the structure shown.

The first assay deals with Pseudomonas aeruginosa FP 1380. In words: In vitro antibacterial activity (MIC) by the two-fold agar-plate dilution method. In kind it is cell-based. To be noted: FP1380; test strain Pseudomonas aeruginosa FP 1380; heart infusion agar; incubation at 37° C. for 20 hours; read-out: MIC (minimal inhibitory concentration). The procedure: In vitro antibacterial activity was determined by the two-fold agar-plate dilution method as described below.
One loopful of an overnight culture of each test strain in Trypticase-soy broth (10^6 viable cells per ml) was streaked on heart infusion agar (HI-agar) containing graded concentrations of representative test compound, and the minimal inhibitory concentration (MIC) was expressed in μg/ml after incubation at 37° C. for 20 hours.
`CC(C)(O/N=C(\C(=O)N[C@@H]1C(=O)N2C(C(=O)[O-])=C(C[n+]3ccccc3)CS[C@H]12)c1csc(N)n1)C(=O)O` [Ceftazidime, reference compound]: the MIC was 128 µg/mL (≈ 234 µM). On to `Cn1c(N)c(NC(=O)CCN)c[n+]1CC1=C(C(=O)[O-])N2C(=O)[C@@H](NC(=O)/C(=N\OC(C)(C)C(=O)O)c3nsc(N)n3)[C@H]2SC1` [Compound (b), 7β-[(Z)-2-(5-amino-1,2,4-thiadiazol-3-yl)-2-(1-carboxy-1-methylethoxyimino)acetamido]-3-[3-amino-4-(3-aminopropionamido)-2-methyl-1-pyrazolio]methyl-3-cephem-4-carboxylate], for which the MIC turned out to be 1 µg/mL (≈ 1.53 µM).

`Cn1c(N)c(NC(=O)CN)c[n+]1CC1=C(C(=O)O)N2C(=O)[C@@H](NC(=O)/C(=N\OC(C)(C)C(=O)O)c3nsc(N)n3)[C@H]2SC1.O=S(=O)([O-])O` [Compound (c), 7β-[(Z)-2-(5-amino-1,2,4-thiadiazol-3-yl)-2-(1-carboxy-1-methylethoxyimino)acetamido]-3-[3-amino-4-(aminoacetyl)amino-2-methyl-1-pyrazolio]methyl-3-cephem-4-carboxylic acid hydrogen sulfate]: the MIC was determined as 2 µg/mL.

As to `Cn1c(N)c(NC(=O)NCCN)c[n+]1CC1=C(C(=O)O)N2C(=O)[C@@H](NC(=O)/C(=N\OC(C)(C)C(=O)O)c3nsc(N)n3)[C@H]2SC1.O=S(=O)([O-])O` [Compound (d), 7β-[(Z)-2-(5-amino-1,2,4-thiadiazol-3-yl)-2-(1-carboxy-1-methylethoxyimino)acetamido]-3-{3-amino-4-[3-(2-aminoethyl)ureido]-2-methyl-1-pyrazolio}methyl-3-cephem-4-carboxylic acid hydrogen sulfate], the MIC came out at 2 µg/mL. The same measure, in the same setting: under `Cn1c(N)c(NC(=N)N)c[n+]1CC1=C(C(=O)O)N2C(=O)[C@@H](NC(=O)/C(=N\OC(C)(C)C(=O)O)c3nsc(N)n3)[C@H]2SC1.O=S(=O)([O-])O` [Compound (e), 7β-[(Z)-2-(5-amino-1,2,4-thiadiazol-3-yl)-2-(1-carboxy-1-methylethoxyimino)acetamido]-3-(3-amino-4-guanidino-2-methyl-1-pyrazolio)methyl-3-cephem-4-carboxylic acid hydrogen sulfate] stands 1 µg/mL.

Still in this assay, the particulars now being: test strain Pseudomonas aeruginosa FP 1380; heart infusion agar; incubation at 37° C. for 20 hours.
For `CC(C)(O/N=C(\C(=O)N[C@@H]1C(=O)N2C(C(=O)[O-])=C(C[n+]3cc(NC(=O)CCN)c4n3CCN4)CS[C@H]12)c1nsc(N)n1)C(=O)O` [Compound (a), 7β-[(Z)-2-(5-amino-1,2,4-thiadiazol-3-yl)-2-(1-carboxy-1-methylethoxyimino)acetamido]-3-[7-(3-aminopropionamido)-2,3-dihydro-5-(1H-imidazo[1,2-b]pyrazolio)]methyl-3-cephem-4-carboxylate], the “MIC (minimal inhibitory concentration)” value was 2 µg/mL (≈ 3.01 µM).
